Measurements from PMC2346451 (PLoS ONE, 2008).
Where two headings read alike, the source gives them in different places.

How the values were obtained:
rat TRPM8 (rTRPM8) = rat TRPM8 (rTRPM8) (Rattus norvegicus, UniProt Q8R455); experiment: Whole-cell patch clamp of rat TRPM8 expressed in HEK-293T cells; type: cell-based
Experimental: (§1) Transformed human embryonic kidney-293 (HEK-293T) cells were grown in Dulbecco's modified Eagle's medium (DMEM)+F-12 supplemented with 10% fetal calf serum, and 1% penicillin/streptomycin in 5% CO2 at 37°C. Cells grown to 90% confluence in 35 mm Petri dishes were transiently transfected with plasmid DNA encoding a TRP channel construct (1 µg). Rat TRPV1 (rTRPV1) was cloned into an enhanced green fluorescent protein-containing vector (pTracer-CMV2; Invitrogen, Carlsbad, CA). Chicken TRPV1 (cTRPV1), the chicken rat TRPV1 chimera (crcTRPV1), rat TRPV2 (rTRPV2), mouse TRPV3 (mTRPV3), mouse TRPV4 (mTRPV4), rat TRPM8 (rTRPM8), and rat TRPA1 (rTRPA1), were cloned into pcDNA3 and co-transfected with enhanced green fluorescent protein (0.1 µg) to follow expression. The cTRPV1 and crcTRPV1 clones were kindly provided by Dr. David Julius. Recordings were carried out 24–36 hours after transfection. Cells were split via trypsin EDTA, plated on glass coverslips at 5–10% confluence, and used 2–3 hours later.
(§2) Electrophysiological experiments were performed using the whole-cell patch-clamp technique at room temperature. Modified Ringer's solution with low chloride and nominal calcium contained (in mM): 130 sodium hydroxide, 5 potassium chloride, 1 magnesium chloride, 10 sodium 4-(2-hydroxyethyl)-1-piperazineethanesulfonic acid, 10 2-(N-morpholino)ethanesulfonic acid, and 20 glucose (pH 7.4; 310 milli-osmolar). […] 2 mM calcium chloride was included in the external solution where noted. To activate TRPV1, the modified Ringer's solution was made at pH 5 (low pH solution) and the chloride concentration was kept to a minimum to prevent contamination of the TRPV1 currents with acid-activated chloride currents. For recordings from heterologously expressing cells, the internal pipette solution contained (in mM): 125 cesium-Methanesulfonate, 10 cesium (1.2-bis(o-aminophenoxy)ethane-N,N,N',N'-tetraacetic acid, 8 sodium chloride, 4 magnesium adenosine triphosphate, and 10 HEPES (pH 7.2; 290 mOSM; nominal free calcium concentrations). For TRPA1 and dorsal root ganglion recordings, the internal pipette solution contained (in mM): 110 cesium-Methanesulfonate, 0.5 cesium4BAPTA, 8 sodium chloride, 0.2 calcium chloride, 4 magnesium-ATP, 4 sodium-GTP, and 10 4-(2-hydroxyethyl)-1-piperazineethanesulfonic acid (pH 7.2; 290 mOSM; 100 nM free calcium internal). MaxChelator was used to calculate the free calcium concentration (http://www.stanford.edu/cpatton/maxc.html).
(§3) Recordings were obtained using an Axopatch 200B amplifier, Digidata 1322A analog-to-digital converter, and pClamp 8.01 software (Molecular Devices, Union City, CA). Data were low-pass filtered at 2 kHz and digitized at 5 kHz. Borosilicate glass pipettes (World Precision Instruments, Sarasota, FL) were typically 3 MΩ pipette resistance after fire polishing. Cell capacitance was measured for each cell, and access resistance compensated to ∼80%. Recordings were begun ∼5 minutes after initial rupture to ensure initial steady state conditions. Current-voltage (I-V) relations were obtained using a ramp protocol. Voltage ramps (400 ms) from −100 to +40 or +100 mV were applied every 1–2 seconds and the holding potential was either −70 mV or 0 mV (see Figure Legends). A 40 ms step was added at the beginning and end of the ramp (i.e. at −100 mV, +40 mV or +100 mV). Liquid junction potentials were not corrected.
(§4) The dose response curves were fit with the Hill equation, where [drawing 8] and [A] is the concentration of agonist or blocker, N is the Hill coefficient, and KD is the [A] for Imeasured/Imax = 0.5. The term apparent dissociation constant is used in place of the half concentration of excitation and inhibition. […] Averaged data are presented as mean±standard error (S.E.) throughout. Statistical analysis included paired and unpaired Student's t-test comparisons of the data; p values are reported in the text.

[1] = test system: dorsal root ganglion neurons; experiment: Whole-cell patch clamp of acutely isolated dorsal root ganglion neurons; type: cell-based, rat
From the text: Dorsal root ganglion neurons from all spinal levels were removed from postnatal day 12 to 20 Sprague Dawley rats and the nerve roots trimmed. Calcium- and magnesium-free (CMF) Hank's solution contained (in mM): 136.9 sodium chloride, 5.4 potassium chloride, 0.34 dibasic sodium orthophosphate, 0.44 monopotassium phosphate, 5.6 glucose, 5 4-(2-hydroxyethyl)-1-piperazineethanesulfonic acid, 0.005% phenol red, pH 7.4. CMF Hank's was used throughout the isolation and enzymatic treatments. The isolated ganglia were treated for 20 minutes at 37°C with 20 U/ml of papain (Worthington Biochemical, Lakewood, NJ) and 5 mM cysteine. The ganglia were then transferred to CMF Hank's with 3 mg/ml collagenase (type I; Worthington) and 4 mg/ml dispase (neutral type II; Roche Applied Science, Indianapolis, IN) for 20 minutes at 37°C. Individual neurons were dispersed by trituration through a fire-polished glass Pasteur pipette in 3 ml of media containing DMEM, 5% horse serum, 10% fetal bovine serum, 1% penicillin/streptomycin, and 100 ng/ml Nerve Growth Factor (7S subunit; Invitrogen). The neurons were preplated in tissue culture-treated Petri dishes for 1 hour when used for electrophysiology (3 hours for calcium imaging), and then plated on poly-L-lysine (1 mg/ml)-coated glass coverslips. Dorsal root ganglion neurons were allowed to settle for 1–2 hours at 37°C before patching or imaging over the next 6 hours.
as §2, §3

rat TRPV1 (rTRPV1) = rat TRPV1 (rTRPV1) (Rattus norvegicus, UniProt O35433); experiment: Whole-cell patch clamp of rat TRPV1 expressed in HEK-293T cells; type: cell-based; conditions: for Increase of agonist-evoked current prior to onset of inhibition: citral 1 mM, n = 8
rat TRPV1 (rTRPV1), sequence (O35433 whole entry): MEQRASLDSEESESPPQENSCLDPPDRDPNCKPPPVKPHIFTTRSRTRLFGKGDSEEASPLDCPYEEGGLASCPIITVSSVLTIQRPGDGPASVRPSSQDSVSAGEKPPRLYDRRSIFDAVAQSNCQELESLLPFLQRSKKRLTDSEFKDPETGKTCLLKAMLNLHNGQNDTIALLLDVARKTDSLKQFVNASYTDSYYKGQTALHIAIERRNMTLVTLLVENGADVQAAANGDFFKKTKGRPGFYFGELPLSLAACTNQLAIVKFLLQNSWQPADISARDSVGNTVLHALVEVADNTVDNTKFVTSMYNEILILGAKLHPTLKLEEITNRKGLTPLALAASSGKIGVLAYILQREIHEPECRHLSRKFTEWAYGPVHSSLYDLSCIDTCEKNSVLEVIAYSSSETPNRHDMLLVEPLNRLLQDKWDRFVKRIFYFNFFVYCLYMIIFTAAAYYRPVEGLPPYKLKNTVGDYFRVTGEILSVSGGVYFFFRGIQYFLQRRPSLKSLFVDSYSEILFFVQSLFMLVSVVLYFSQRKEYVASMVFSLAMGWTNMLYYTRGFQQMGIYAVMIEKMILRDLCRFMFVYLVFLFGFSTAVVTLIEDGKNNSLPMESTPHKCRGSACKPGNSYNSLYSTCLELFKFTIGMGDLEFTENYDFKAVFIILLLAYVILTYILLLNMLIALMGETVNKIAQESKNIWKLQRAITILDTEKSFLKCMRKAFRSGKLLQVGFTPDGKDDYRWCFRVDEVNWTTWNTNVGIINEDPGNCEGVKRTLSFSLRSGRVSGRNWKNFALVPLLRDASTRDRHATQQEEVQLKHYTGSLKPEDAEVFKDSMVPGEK
Experimental: as §1, §2, §3, §4

rat TRPM8 (rTRPM8), sequence (Q8R455 whole entry): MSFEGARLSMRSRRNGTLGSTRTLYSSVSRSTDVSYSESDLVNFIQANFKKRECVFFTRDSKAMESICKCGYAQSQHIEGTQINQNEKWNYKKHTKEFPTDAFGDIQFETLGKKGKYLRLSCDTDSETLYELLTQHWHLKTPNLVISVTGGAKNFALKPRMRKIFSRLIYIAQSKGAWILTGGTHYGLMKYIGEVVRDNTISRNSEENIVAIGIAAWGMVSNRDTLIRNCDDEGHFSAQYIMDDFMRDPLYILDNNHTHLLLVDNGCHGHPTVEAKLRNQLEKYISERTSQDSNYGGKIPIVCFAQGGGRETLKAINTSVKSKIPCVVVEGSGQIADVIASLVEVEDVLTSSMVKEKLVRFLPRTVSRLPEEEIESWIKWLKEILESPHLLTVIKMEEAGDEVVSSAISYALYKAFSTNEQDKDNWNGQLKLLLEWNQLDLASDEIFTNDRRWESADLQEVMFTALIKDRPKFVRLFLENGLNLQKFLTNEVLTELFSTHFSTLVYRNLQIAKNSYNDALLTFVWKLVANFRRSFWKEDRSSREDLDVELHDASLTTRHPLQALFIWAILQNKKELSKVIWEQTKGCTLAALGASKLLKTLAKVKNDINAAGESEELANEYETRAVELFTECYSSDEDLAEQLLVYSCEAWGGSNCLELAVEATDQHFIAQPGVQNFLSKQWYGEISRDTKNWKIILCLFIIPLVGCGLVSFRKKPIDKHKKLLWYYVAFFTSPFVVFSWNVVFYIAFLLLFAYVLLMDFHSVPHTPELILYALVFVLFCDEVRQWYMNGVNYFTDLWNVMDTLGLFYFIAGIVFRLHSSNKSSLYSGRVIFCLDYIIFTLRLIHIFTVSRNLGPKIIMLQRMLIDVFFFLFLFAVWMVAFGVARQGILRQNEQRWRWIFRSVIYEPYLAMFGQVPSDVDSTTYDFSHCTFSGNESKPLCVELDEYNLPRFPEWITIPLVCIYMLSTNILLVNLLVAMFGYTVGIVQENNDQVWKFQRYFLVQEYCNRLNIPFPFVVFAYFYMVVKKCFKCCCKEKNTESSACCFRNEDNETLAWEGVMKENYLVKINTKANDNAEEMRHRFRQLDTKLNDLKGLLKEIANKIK

CC(C)=CCCC(C)=CC=O [citral, 3,7-dimethyl-2,6-octadienal]
Hill coefficient (activation) (rat TRPM8 (rTRPM8)): 1.6 | Reversibility of citral inhibition of agonist-evoked current (rat TRPM8 (rTRPM8)): essentially irreversible | Hill coefficient (inhibition) (rat TRPM8 (rTRPM8); +40 mV): 1.7 | Increase in TRPM8 current evoked by menthol after citral washout (rat TRPM8 (rTRPM8); after 60 seconds washout, n = 3): 4±2% | Kd (rat TRPM8 (rTRPM8); citral activation, nominal external calcium, read-out: Activation KD, app): 33.5 µM | Kd (rat TRPM8 (rTRPM8); citral block of menthol (1 mM)-evoked current, +40 mV, read-out: Inhibition KD, app): 188 µM | Kd (rat TRPM8 (rTRPM8); citral block of menthol (1 mM)-evoked current, −40 mV, read-out: Inhibition KD, app): 241 µM | Agonist efficacy Imenthol (30 µM)/Icitral (300 µM) (rat TRPM8 (rTRPM8); fold larger, −40 mV, n = 5): Imenthol (30 µM)/Icitral (300 µM) 74±28 fold larger (n = 5; −40 mV) | Effect of citral addition on agonist-induced current (rat TRPM8 (rTRPM8); menthol-induced, n = 4): not increased | Time for >50% inhibition of peak TRP current in continued presence of citral (rat TRPM8 (rTRPM8); n = 7): ≤ 14 s | Hill coefficient (inhibition) (rat TRPM8 (rTRPM8); −40 mV): 2.0 | Increase of inward ITRPM8 above baseline (rat TRPM8 (rTRPM8); −40 mV): 2 fold | Block of TRPV1-like currents evoked by capsaicin ([1]; 1 µM capsaicin): 94% | Effect on fast inward current (primarily voltage-gated sodium channels) ([1]; 1 mM citral): partially blocked | Increase of outward currents ([1]; 1 mM citral, n = 8): 2.7±0.5 fold | Capsaicin response recovered after citral washout ([1]; 5 minutes after washout, n = 8): 3±1.5% | Potentiation of TRPV1-like current prior to inhibition ([1]; capsaicin activation, n = 17): 1.1±0.03 fold | Initial (constitutive) outward current inhibited ([1]; citral at pH 5): 79% | Block of TRPV1-like currents evoked by pH 5 solution ([1]; pH 5): 100% | Potentiation of TRPV1-like current prior to inhibition ([1]; pH 5 activation, n = 20): 1.5±0.1 fold | Reversibility of citral inhibition of agonist-evoked current (rat TRPV1 (rTRPV1)): essentially irreversible | pH 5-evoked TRPV1 current remaining after citral washout (rat TRPV1 (rTRPV1); 30 seconds after citral washout, n = 5): 0.2±0.1% | Hill coefficient (activation) (rat TRPV1 (rTRPV1); +40 mV): 2.9 | Increase of agonist-evoked current prior to onset of inhibition (rat TRPV1 (rTRPV1); +40 mV): 1.6±0.2 fold | Increase of agonist-evoked current prior to onset of inhibition (rat TRPV1 (rTRPV1); −100 mV): 1.8±0.3 fold | Kd (rat TRPV1 (rTRPV1); citral activation, +40 mV, nominal external calcium, read-out: Activation KD, app): 417 µM | Kd (rat TRPV1 (rTRPV1); citral activation, −40 mV, nominal external calcium, read-out: Activation KD, app): 465 µM | Hill coefficient (inhibition) (rat TRPV1 (rTRPV1); citral block of pH5-evoked current): 1.3 | Kd (rat TRPV1 (rTRPV1); citral block of pH5-evoked current, read-out: Inhibition KD, app): 187 µM | Agonist efficacy IpH5/Icitral (1 mM) (rat TRPV1 (rTRPV1); fold larger, −40 mV, n = 3): IpH5/Icitral (1 mM) 28±8 fold larger (n = 3; −40 mV) | Time for >50% inhibition of peak TRP current in continued presence of citral (rat TRPV1 (rTRPV1); n = 9): ≤ 14 s | Hill coefficient (activation) (rat TRPV1 (rTRPV1); −40 mV): 2.7 | Increase of inward ITRPV1 above baseline (rat TRPV1 (rTRPV1); −40 mV): 14 fold
